Laboratory results: article PMC9736855, “Discovery of 3-Amino-1H-pyrazole-Based Kinase Inhibitors to Illuminate the Understudied PCTAIRE Family” (International Journal of Molecular Sciences, 2022)

How the values were obtained:
Assay in all cases: DSF
Format in all cases: binding
[1] = target: T1, PIM1 (Homo sapiens, UniProt P11309)
T1 construct: purchased in-house DSF panel (SGC Frankfurt)
Description: (§3) Recombinant protein kinase domains with a concentration of 2 μM were mixed with a 10 μM compound solution in DMSO, 20 mM HEPES, pH 7.5, and 500 mM NaCl. SYPRO Orange (5000×, Invitrogen) was added as a fluorescence probe (1 µl per mL). Subsequently, temperature-dependent protein unfolding profiles were measured, using the QuantStudio™ 5 realtime PCR machine (Thermo Fisher, Waltham, MA, USA). […] The temperature was raised with a step rate of 3 °C per minute. Data points were analyzed with the internal software (Thermal Shift SoftwareTM Version 1.4, Thermo Fisher) using the Boltzmann equation to determine the inflection point of the transition curve [56]. Differences in melting temperature are given as ΔTm values in °C. Measurements were performed in duplicates.

[2] = target: T2, STK3 (Homo sapiens, UniProt Q13188)
T2 construct: purchased in-house DSF panel (SGC Frankfurt)
T2 sequence (Q13188 16-313): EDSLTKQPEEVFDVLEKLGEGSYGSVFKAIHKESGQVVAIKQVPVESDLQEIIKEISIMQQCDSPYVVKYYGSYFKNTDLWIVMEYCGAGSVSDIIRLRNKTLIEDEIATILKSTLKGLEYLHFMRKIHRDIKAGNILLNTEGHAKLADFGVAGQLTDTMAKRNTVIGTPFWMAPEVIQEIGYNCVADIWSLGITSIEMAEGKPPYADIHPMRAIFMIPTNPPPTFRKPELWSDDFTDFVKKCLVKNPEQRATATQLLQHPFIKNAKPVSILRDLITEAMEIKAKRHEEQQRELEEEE
Description: as §3

[3] = target: T3, CDK2 (Homo sapiens, UniProt P24941); conditions: 10 μM compound
T3 construct: purchased in-house DSF panel (SGC Frankfurt)
Outline: (§1)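 Differential scanning fluorimetry follows unfolding of the protein through fluorescence of a dye that depends on folding state. The value is ΔTm, the melting-temperature shift between compound-free and compound-bound protein. Duplicate measurements.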

[4] = target: T4, CDK16 (Homo sapiens, UniProt Q00536); conditions: 10 μM compound
T4 construct: purchased in-house DSF panel (SGC Frankfurt)
Outline: as §1

[5] = target: GSK3B (Homo sapiens, UniProt P49841); set-up: purchased in-house DSF panel (SGC Frankfurt); conditions: 10 μM compound
Outline: as §1

[6] = target: T5, CAMKK2 (Homo sapiens, UniProt Q96RR4)
T5 construct: purchased in-house DSF panel (SGC Frankfurt)
Description: as §3

[7] = target: T6, UKL3 (Homo sapiens, UniProt Q6PHR2);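 further: compound tested at 10 µM with 2 µM protein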
T6 construct: purchased in-house DSF panel (SGC Frankfurt)
T6 sequence (Q6PHR2 1-279): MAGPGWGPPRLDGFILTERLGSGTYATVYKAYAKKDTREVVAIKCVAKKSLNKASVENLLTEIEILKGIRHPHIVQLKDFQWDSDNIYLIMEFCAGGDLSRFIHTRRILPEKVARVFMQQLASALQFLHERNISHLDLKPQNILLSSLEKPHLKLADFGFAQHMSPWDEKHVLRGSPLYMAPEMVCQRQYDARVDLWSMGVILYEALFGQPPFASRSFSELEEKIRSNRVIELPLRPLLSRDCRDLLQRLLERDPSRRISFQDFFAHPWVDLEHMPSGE
Description: as §3

[8] = target: T7, STK38L (Homo sapiens, UniProt Q9Y2H1)
T7 construct: purchased in-house DSF panel (SGC Frankfurt)
Description: as §3

[9] = target: T8, EPHA5 (Homo sapiens, UniProt P54756);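 further: compound tested at 10 µM with 2 µM protein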
T8 construct: purchased in-house DSF panel (SGC Frankfurt)
T8 sequence (P54756 653-939): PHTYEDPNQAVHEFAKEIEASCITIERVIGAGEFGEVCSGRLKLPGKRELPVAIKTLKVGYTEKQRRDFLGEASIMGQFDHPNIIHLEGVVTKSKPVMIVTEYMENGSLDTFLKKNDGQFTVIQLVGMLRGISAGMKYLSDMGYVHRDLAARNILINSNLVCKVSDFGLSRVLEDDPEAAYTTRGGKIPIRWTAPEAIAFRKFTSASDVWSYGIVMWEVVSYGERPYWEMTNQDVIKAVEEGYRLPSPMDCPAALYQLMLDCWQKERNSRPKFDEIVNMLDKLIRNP
Description: as §3

[10] = target: T9, STK6 (Homo sapiens, UniProt O14965)
T9 construct: purchased in-house DSF panel (SGC Frankfurt)
T9 sequence (O14965 122-403): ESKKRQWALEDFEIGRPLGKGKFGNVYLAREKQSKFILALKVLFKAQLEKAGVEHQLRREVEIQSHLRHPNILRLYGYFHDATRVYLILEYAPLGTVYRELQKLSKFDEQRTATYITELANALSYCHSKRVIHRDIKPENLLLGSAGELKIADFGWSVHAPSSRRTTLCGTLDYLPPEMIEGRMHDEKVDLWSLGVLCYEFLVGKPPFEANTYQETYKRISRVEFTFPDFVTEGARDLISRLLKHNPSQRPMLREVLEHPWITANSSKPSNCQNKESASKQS
Description: as §3

[11] = target: T10, CK2A2 (Homo sapiens, UniProt P19784);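 further: compound tested at 10 µM with 2 µM protein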
T10 construct: purchased in-house DSF panel (SGC Frankfurt)
Description: as §3

[12] = target: T11, SLK (Homo sapiens, UniProt Q9H2G2)
T11 construct: purchased in-house DSF panel (SGC Frankfurt)
Description: (§2) Measurements were performed in duplicates.

[13] = target: T12, BMP2K (Homo sapiens, UniProt Q9NSY1)
T12 construct: purchased in-house DSF panel (SGC Frankfurt)
Description: as §2

[14] = target: T13, STK39 (Homo sapiens, UniProt Q9UEW8)
T13 construct: purchased in-house DSF panel (SGC Frankfurt)
Description: as §2

[15] = target: T14, EPHA7 (Homo sapiens, UniProt Q15375)
T14 construct: purchased in-house DSF panel (SGC Frankfurt)
Description: as §2

[16] = target: T15, STK4 (Homo sapiens, UniProt Q13043)
T15 construct: purchased in-house DSF panel (SGC Frankfurt)
T15 sequence (Q13043 30-281): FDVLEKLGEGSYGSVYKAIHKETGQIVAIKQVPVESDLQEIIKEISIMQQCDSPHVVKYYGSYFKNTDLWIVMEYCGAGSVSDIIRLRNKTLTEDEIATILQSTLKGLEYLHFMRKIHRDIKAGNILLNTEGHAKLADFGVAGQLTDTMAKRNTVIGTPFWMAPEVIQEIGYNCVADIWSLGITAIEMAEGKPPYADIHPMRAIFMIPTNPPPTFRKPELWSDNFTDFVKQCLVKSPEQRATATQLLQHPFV
Description: as §2

[17] = target: T16, PLK4 (Homo sapiens, UniProt O00444)
T16 construct: purchased in-house DSF panel (SGC Frankfurt)
T16 sequence (O00444 2-275): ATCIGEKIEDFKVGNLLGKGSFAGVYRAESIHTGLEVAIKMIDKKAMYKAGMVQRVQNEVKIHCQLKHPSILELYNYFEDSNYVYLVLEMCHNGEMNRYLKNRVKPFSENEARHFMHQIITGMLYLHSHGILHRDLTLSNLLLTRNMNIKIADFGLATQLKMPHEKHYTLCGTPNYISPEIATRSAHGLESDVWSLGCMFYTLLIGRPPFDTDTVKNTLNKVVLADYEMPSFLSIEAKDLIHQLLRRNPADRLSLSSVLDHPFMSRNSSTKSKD
Description: as §2

[18] = target: T17, MARK4 (Homo sapiens, UniProt Q96L34)
T17 construct: purchased in-house DSF panel (SGC Frankfurt)
Description: as §2

T17 sequence (Q96L34 59-310): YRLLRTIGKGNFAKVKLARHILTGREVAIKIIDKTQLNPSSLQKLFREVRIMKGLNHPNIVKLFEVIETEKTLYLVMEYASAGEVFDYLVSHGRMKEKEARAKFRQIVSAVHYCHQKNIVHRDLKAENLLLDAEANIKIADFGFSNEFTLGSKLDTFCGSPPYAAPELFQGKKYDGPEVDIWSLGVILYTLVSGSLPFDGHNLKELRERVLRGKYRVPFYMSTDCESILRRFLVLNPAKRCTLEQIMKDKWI
T4 sequence (Q00536 163-478): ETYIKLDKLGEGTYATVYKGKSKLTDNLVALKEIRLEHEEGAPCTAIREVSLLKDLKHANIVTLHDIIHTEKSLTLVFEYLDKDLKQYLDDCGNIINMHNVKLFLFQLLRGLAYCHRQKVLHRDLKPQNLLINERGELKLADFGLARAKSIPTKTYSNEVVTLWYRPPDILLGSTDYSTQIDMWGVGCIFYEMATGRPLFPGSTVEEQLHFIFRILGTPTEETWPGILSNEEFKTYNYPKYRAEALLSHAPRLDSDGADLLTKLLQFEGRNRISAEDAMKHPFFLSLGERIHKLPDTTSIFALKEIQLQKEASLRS
Chain of GSK3B (P49841 35-386): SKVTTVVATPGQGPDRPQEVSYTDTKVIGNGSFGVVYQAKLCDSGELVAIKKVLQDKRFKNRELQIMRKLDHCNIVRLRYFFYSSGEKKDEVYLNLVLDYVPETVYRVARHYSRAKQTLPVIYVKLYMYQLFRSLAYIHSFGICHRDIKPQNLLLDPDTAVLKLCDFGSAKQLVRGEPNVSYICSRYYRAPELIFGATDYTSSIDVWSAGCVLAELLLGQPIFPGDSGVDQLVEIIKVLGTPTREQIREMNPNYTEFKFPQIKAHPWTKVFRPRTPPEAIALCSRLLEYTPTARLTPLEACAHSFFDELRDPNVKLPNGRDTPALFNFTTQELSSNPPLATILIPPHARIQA
T5 sequence (Q96RR4 161-449): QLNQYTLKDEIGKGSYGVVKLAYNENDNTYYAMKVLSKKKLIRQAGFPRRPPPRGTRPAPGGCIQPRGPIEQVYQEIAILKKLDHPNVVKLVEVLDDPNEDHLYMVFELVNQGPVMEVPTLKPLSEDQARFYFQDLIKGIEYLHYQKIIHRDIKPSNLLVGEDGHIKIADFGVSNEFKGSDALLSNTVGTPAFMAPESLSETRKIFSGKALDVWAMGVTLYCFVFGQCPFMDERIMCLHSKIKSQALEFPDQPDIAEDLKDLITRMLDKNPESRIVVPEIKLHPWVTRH
T12 sequence (Q9NSY1 38-345): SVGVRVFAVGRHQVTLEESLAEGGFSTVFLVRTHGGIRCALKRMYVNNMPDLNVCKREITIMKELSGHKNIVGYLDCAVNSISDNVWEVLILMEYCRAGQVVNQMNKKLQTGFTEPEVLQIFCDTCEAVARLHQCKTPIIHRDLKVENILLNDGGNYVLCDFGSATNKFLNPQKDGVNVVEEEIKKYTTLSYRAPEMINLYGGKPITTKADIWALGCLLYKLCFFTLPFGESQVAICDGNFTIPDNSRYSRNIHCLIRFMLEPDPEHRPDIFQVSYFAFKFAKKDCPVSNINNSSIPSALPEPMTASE
T1 sequence (P11309 whole entry): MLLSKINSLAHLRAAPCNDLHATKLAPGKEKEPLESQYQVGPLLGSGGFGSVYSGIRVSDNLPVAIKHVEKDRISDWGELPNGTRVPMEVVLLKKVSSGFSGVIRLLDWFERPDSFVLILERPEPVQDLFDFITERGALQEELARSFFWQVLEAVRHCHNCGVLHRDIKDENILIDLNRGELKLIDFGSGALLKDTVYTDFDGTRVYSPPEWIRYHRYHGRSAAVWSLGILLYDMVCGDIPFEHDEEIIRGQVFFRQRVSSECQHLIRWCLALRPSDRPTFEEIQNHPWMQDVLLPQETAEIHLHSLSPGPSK
T14 sequence (Q15375 590-899): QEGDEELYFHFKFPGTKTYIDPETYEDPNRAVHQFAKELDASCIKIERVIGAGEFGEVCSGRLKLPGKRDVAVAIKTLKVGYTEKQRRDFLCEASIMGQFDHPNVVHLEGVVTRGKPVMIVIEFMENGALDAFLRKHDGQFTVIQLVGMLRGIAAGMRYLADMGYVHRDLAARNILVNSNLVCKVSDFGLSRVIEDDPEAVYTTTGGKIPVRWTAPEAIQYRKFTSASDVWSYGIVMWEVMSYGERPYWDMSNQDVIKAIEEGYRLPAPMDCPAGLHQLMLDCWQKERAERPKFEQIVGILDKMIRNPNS
T10 sequence (P19784 whole entry): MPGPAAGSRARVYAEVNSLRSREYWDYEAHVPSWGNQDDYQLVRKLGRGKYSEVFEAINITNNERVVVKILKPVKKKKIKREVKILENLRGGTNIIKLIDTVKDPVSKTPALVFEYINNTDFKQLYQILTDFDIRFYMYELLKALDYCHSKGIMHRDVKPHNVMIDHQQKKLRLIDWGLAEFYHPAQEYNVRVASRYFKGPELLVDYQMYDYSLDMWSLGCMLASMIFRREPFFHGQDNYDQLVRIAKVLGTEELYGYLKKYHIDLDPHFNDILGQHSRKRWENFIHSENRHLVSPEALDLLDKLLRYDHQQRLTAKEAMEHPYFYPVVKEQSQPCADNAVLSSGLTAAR
T7 sequence (Q9Y2H1 90-453): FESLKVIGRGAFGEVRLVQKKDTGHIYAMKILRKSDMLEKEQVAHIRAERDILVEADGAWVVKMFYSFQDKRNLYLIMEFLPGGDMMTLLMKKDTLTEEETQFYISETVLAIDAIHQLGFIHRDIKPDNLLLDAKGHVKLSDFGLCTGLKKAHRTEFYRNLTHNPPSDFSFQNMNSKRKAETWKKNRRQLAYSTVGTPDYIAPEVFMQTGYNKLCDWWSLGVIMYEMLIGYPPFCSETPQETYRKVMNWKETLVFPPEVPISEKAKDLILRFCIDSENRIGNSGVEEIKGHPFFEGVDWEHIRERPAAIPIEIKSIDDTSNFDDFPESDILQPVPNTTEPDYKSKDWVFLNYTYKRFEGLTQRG

SMILES	ΔTm PIM1 [1] [°C]	ΔTm STK3 [2] [°C]	ΔTm at 10 µM [3] [°C]	ΔTm at 10 µM [4] [°C]	ΔTm at 10 µM [5] [°C]	ΔTm CAMKK2 [6] [°C]	ΔTm UKL3 [7] [°C]	ΔTm STK38L [8] [°C]	ΔTm EPHA5 [9] [°C]	ΔTm STK6 [10] [°C]	ΔTm CK2A2 [11] [°C]	ΔTm SLK [12] [°C]	ΔTm BMP2K [13] [°C]	ΔTm STK39 [14] [°C]	ΔTm EPHA7 [15] [°C]	ΔTm STK4 [16] [°C]	ΔTm PLK4 [17] [°C]	ΔTm MARK4 [18] [°C]
CC(C)(C)OC(=O)Nc1ccc(CNc2nccc(Nc3cc(C(=O)OC(C)(C)C)[nH]n3)n2)cc1 [43d, tert-butyl 3-((2-((4-((tert-butoxycarbonyl)amino)benzyl)amino)pyrimidin-4-yl)amino)-1H-pyrazole-5-carboxylate]	-0.7	0.3	3.2	9.2	2.9	0.1	3.3	0.0	-2.7	4.0	1.1	0.1	1.7	-0.9	-3.4	-0.2	5.5	-0.5
CN[C@@H]1C[C@H]2O[C@@](C)([C@@H]1OC)n1c3ccccc3c3c4c(c5c6ccccc6n2c5c31)C(=O)NC4 [staurosporine, reference compound]	–	16.6	–	–	–	–	–	–	–	–	–	18.0	19.1	9.6	10.3	14.9	16.0	16.4
CC(C)OC(=O)c1cc(Nc2ccnc(NCc3ccc(NC(=O)OC(C)(C)C)cc3)n2)n[nH]1 [42d, isopropyl 3-((2-((4-((tert-butoxycarbonyl)amino)benzyl)amino)pyrimidin-4-yl)amino)-1H-pyrazole-5-carboxylate]	0.2	-1.0	3	8.4	4.7	-0.6	2.3	0.0	-0.6	3.4	1.1	-0.6	1.4	-0.6	-3.1	-0.5	3.7	0.3
COC(=O)c1cc(Nc2ccnc(NCCOCCNC(=O)OC(C)(C)C)n2)[nH]n1 [21d, methyl 5-((2-((2-(2-((tert-butoxycarbonyl)amino)ethoxy)ethyl)amino)pyrimidin-4-yl)amino)-1H-pyrazole-3-carboxylate]	2.1	1.6	1.9	4.3	6.2	0.5	0.9	1.2	0.2	3.2	1.8	1.0	5.7	1.8	1.3	1.6	3.0	1.7
N#CCc1ccc(Nc2nccc(Nc3cc(C4CC4)[nH]n3)n2)cc1 [compound 1, reference compound]	3.3	11.6	15.2	10.3	14	12.0	8.3	8.7	6.3	14.3	8.5	8.8	18.8	7.6	4.9	9.6	11.1	8.2
COC(=O)c1cc(Nc2ccnc(NCc3ccc(NC(=O)OC(C)(C)C)cc3)n2)[nH]n1 [21i, methyl 5-((2-((4-((tert-butoxycarbonyl)amino)benzyl)amino)pyrimidin-4-yl)amino)-1H-pyrazole-3-carboxylate]	-0.6	1.2	3.3	6.5	7.2	1.1	0.3	0.9	0.2	4.6	1.3	0.2	2.8	2.1	0.6	2.2	4.1	3.3
